Results on 11 compounds are retold here after ChEMBL document CHEMBL1201862, “PubChem BioAssay data set” (2004).

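Tested at 5 concentrations; 48 h exposure; 96-well plates; endpoints linearly interpolated, else capped at highest concentration. At the GI50, growth is halved.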 Active and inactive are the calls of the source. Rule as the data show it: active = GI50 up to about 1.1 µM and inactive = higher.

Test systems include 786-0; EKVX; HCT-15; HL-60; HOP-62; Hs-578T; KM12; MDA-MB-231; NCI-H460; NCI-H522; OVCAR-4; OVCAR-8; SF-268; SF-539; SN12C; SNB-19; SR; U-251; UACC-257; CAKI-1.
Test in all cases: inhibition of tumour cell growth, NCI panel, 48 h

Take `O=C1C=CC(=O)c2cc(Sc3ccccc3)c(=O)ccc21`: the GI50 with 786-0 is 14.8 µM (inactive); in the experiment with EKVX, 18.3 µM (inactive); in the experiment on HCT-15 it was 13.5 µM; in the experiment with HL-60 it was 0.877 µM (active); in the experiment on HOP-62 it was 28.6 µM (inactive); in the experiment on Hs-578T, 27.4 µM (inactive). Further, the GI50 in the experiment with KM12 was 18.1 µM (inactive); in the experiment with MDA-MB-231, 17.9 µM (inactive); in the experiment with NCI-H460 it was 22 µM (inactive); in the experiment with NCI-H522 it was 2.32 µM (inactive); with OVCAR-4, 11 µM (inactive); with OVCAR-8, 15.7 µM (inactive). Moreover, the GI50 in the experiment with SF-268 was 22 µM (inactive); in the experiment on SF-539, 19.8 µM (inactive); in the experiment with SN12C, 16.2 µM (inactive); in the experiment with SNB-19 it was 19.3 µM (inactive); in the experiment on SR, 1.58 µM (inactive); in the experiment on U-251, 17 µM (inactive). The GI50 with UACC-257 was 18 µM (inactive).

Regarding `[O-][S+](CCc1ccccc1)Nc1ccccc1` (centres undefined), the GI50 is > 100 µM (inactive) in the experiment on 786-0; > 100 µM (inactive) in the experiment with CAKI-1; > 100 µM (inactive) in the experiment on EKVX; greater than 100 µM in the experiment with HCT-15; > 100 µM (inactive) with HL-60; > 100 µM (inactive) in the experiment on HOP-62. The GI50 with Hs-578T is 0.0406 µM (active); in the experiment with KM12, > 100 µM (inactive); in the experiment on MDA-MB-231 it was > 100 µM (inactive); in the experiment with NCI-H460, > 100 µM (inactive); with NCI-H522 it was > 100 µM (inactive); with OVCAR-8, > 100 µM (inactive). The GI50 in the experiment with SF-268, with SF-539, in the experiment on SN12C, in the experiment on SNB-19, with SR and in the experiment with U-251 was > 100 µM (inactive) in each case. The GI50 with UACC-257 was 99.3 µM (inactive).

With `CC(CNC(=O)c1ccccc1)(CNC(=O)c1ccccc1)[N+](=O)[O-]`, the GI50 in the experiment on 786-0 was > 100 µM (inactive); in the experiment on CAKI-1, > 100 µM (inactive); with EKVX, > 100 µM (inactive); in the experiment with HCT-15, greater than 100 µM; with HL-60, > 100 µM (inactive); with Hs-578T it was > 100 µM (inactive). Further, the GI50 in the experiment with KM12 is > 100 µM (inactive); in the experiment on MDA-MB-231 it was > 100 µM (inactive); in the experiment on NCI-H460, > 100 µM (inactive); in the experiment on NCI-H522, 67.1 µM (inactive); with OVCAR-8, > 100 µM (inactive); with SF-268, > 100 µM (inactive). Also, the GI50 with SF-539 was > 100 µM (inactive); in the experiment on SN12C, > 100 µM (inactive); with SNB-19 it was 7.05 µM (inactive); in the experiment with SR it was > 100 µM (inactive); in the experiment on U-251, > 100 µM (inactive); in the experiment on UACC-257, > 100 µM (inactive).

Take `CC1(O)CC(C(F)(F)F)(C(F)(F)F)OC1=O` (centres undefined): the GI50 in the experiment on 786-0 is > 10 µM (inactive); in the experiment on CAKI-1, > 10 µM (inactive); with EKVX it was > 10 µM (inactive); with HCT-15, greater than 10 µM; in the experiment with HOP-62 it was > 10 µM (inactive); in the experiment on Hs-578T, > 10 µM (inactive). The GI50 in the experiment on KM12, in the experiment with MDA-MB-231, in the experiment with NCI-H460, with NCI-H522, in the experiment on OVCAR-4 and in the experiment with OVCAR-8 was > 10 µM (inactive) in each case. Further, the GI50 in the experiment with SF-268, in the experiment on SF-539, with SN12C, in the experiment on SNB-19, in the experiment with SR and with U-251 was > 10 µM (inactive) in each case. In the experiment on UACC-257, the GI50 is > 10 µM (inactive).

As for `O=C1C(c2c(O)[nH]c3ccc(Br)cc23)=Nc2ccc(Br)cc21`, the GI50 is 24 µM (inactive) with 786-0; > 100 µM (inactive) with CAKI-1; 38.1 µM (inactive) with EKVX; 43 µM in the experiment on HCT-15; 86.5 µM (inactive) with HL-60; 42.1 µM (inactive) in the experiment on HOP-62. The GI50 in the experiment with Hs-578T was 51.4 µM (inactive); in the experiment with KM12, 44.2 µM (inactive); in the experiment on MDA-MB-231 it was 20 µM (inactive); in the experiment with NCI-H460, 37 µM (inactive); in the experiment on NCI-H522, 83 µM (inactive); with OVCAR-4 it was 53.7 µM (inactive). Besides, the GI50 with OVCAR-8 was 27.1 µM (inactive); with SF-268, 33 µM (inactive); with SN12C it was 45.2 µM (inactive); in the experiment with SNB-19 it was 30.1 µM (inactive); in the experiment on SR, 32.1 µM (inactive); in the experiment on U-251, 18.7 µM (inactive). Also, the GI50 in the experiment on UACC-257 is > 100 µM (inactive).

On to `CCCCCC(C)SC1(C(=O)OC)CC(OC(C)=O)C(NC(C)=O)C([C@H](OC(C)=O)[C@@H](COC(C)=O)OC(C)=O)O1` (some centres undefined), for which the GI50 was 47 µM (inactive) with 786-0; 93.3 µM (inactive) in the experiment with CAKI-1; 34.5 µM in the experiment on HCT-15; 42.5 µM (inactive) with HL-60; > 100 µM (inactive) with HOP-62; 29.4 µM (inactive) with Hs-578T. Also, the GI50 in the experiment on KM12 was 66.7 µM (inactive); in the experiment with MDA-MB-231, 41.9 µM (inactive); in the experiment on NCI-H460 it was 78.7 µM (inactive); in the experiment with NCI-H522, 51.2 µM (inactive); with OVCAR-8, 83.2 µM (inactive); in the experiment on SF-268, > 100 µM (inactive). The GI50 was 22.3 µM (inactive) in the experiment on SF-539; > 100 µM (inactive) in the experiment on SN12C; > 100 µM (inactive) with SNB-19; 64 µM (inactive) with SR; > 100 µM (inactive) in the experiment with U-251; 33 µM (inactive) in the experiment with UACC-257.

For `CC[C@@H]1/C=C/C=C/C[C@H](C)[C@@H](O)[C@](C)(O)C(=O)[C@H](C)[C@@H](O)[C@H](C)C(=O)[C@H](C)[C@@H](O)[C@H](C)/C=C/C(=O)O[C@H]2[C@@H](C)[C@@H](CC1)O[C@@]1(CC[C@@H](C)[C@@H](CC(C)O)O1)[C@@H]2C` (some centres undefined), the GI50 was 1.85 µM (inactive) with 786-0; 1.73 µM (inactive) in the experiment with CAKI-1; < 0.01 µM (active) with EKVX; 1.86 µM in the experiment with HCT-15; < 0.01 µM (active) in the experiment on HL-60; 2.88 µM (inactive) with Hs-578T. The GI50 in the experiment with KM12 is 1.69 µM (inactive); with MDA-MB-231, 1.83 µM (inactive); with NCI-H460 it was 0.499 µM (active); in the experiment with NCI-H522, < 0.01 µM (active); with OVCAR-8, < 0.01 µM (active); in the experiment with SF-268 it was 2.7 µM (inactive). Moreover, the GI50 was 3.58 µM (inactive) in the experiment with SF-539; 1.72 µM (inactive) with SN12C; < 0.01 µM (active) in the experiment on SNB-19; 2 µM (inactive) in the experiment with SR; < 0.01 µM (active) in the experiment with U-251; < 0.01 µM (active) in the experiment on UACC-257.

For `C=C(C)[C@@]1(O[Si](C)(C)C)CCCC[C@@H]1CC(Sc1ccccc1)Sc1ccccc1`, the GI50 in the experiment with 786-0 is 14.6 µM (inactive); in the experiment on CAKI-1 it was 12.9 µM (inactive); with EKVX, 17.6 µM (inactive); in the experiment on HCT-15, 12.3 µM; in the experiment with HL-60 it was 16.7 µM (inactive); in the experiment with HOP-62, 13.8 µM (inactive). The GI50 in the experiment with Hs-578T is 13.4 µM (inactive); in the experiment on KM12 it was 10.6 µM (inactive); with MDA-MB-231, 16.8 µM (inactive); in the experiment on NCI-H460 it was 13.2 µM (inactive); in the experiment with NCI-H522, 7.83 µM (inactive); with OVCAR-4, 12.6 µM (inactive). The GI50 with OVCAR-8 was 16.1 µM (inactive); in the experiment on SF-268 it was 14.8 µM (inactive); in the experiment on SF-539 it was 10.2 µM (inactive); with SNB-19, 16.4 µM (inactive); with SR it was 11.1 µM (inactive); in the experiment with U-251 it was 16 µM (inactive). In addition, the GI50 with UACC-257 was 15.3 µM (inactive).

On to `O=C(O)Cn1ncn(NC(=O)Cc2ccccc2)c1=S`, for which the GI50 in the experiment on 786-0 was > 10 µM (inactive); in the experiment on CAKI-1, > 10 µM (inactive); in the experiment on EKVX it was > 10 µM (inactive); in the experiment on HCT-15, greater than 10 µM; in the experiment on HOP-62, > 10 µM (inactive); with Hs-578T, > 10 µM (inactive). Also, the GI50 with KM12, in the experiment with MDA-MB-231, in the experiment on NCI-H460, with NCI-H522, with OVCAR-4 and in the experiment with OVCAR-8 was > 10 µM (inactive) throughout. For the same compound, the GI50 in the experiment with SF-268, with SF-539, with SN12C, with SNB-19, in the experiment on SR and with U-251 was > 10 µM (inactive) each time. Further, the GI50 with UACC-257 was > 10 µM (inactive).

Turning to `Clc1ccc(-c2ccc(-c3nnc(COc4ccc(OCc5nnc(-c6ccc(-c7ccc(Cl)cc7Cl)o6)o5)c(Cl)c4)o3)o2)c(Cl)c1`, the GI50 in the experiment with 786-0 was > 100 µM (inactive); in the experiment on CAKI-1, > 100 µM (inactive); in the experiment on EKVX, > 100 µM (inactive); in the experiment with HCT-15, greater than 100 µM; with HL-60, > 100 µM (inactive); with HOP-62, 36.6 µM (inactive). Moreover, the GI50 with Hs-578T is 83 µM (inactive); in the experiment on KM12, > 100 µM (inactive); in the experiment with MDA-MB-231, > 100 µM (inactive); in the experiment on NCI-H460, > 100 µM (inactive); with NCI-H522, > 100 µM (inactive); in the experiment on OVCAR-4 it was > 100 µM (inactive). Also, the GI50 in the experiment with OVCAR-8 is 45.7 µM (inactive); with SF-268 it was 56.1 µM (inactive); in the experiment with SN12C, > 100 µM (inactive); in the experiment with SNB-19, 61.7 µM (inactive); in the experiment with SR, 28.8 µM (inactive); with U-251, 40 µM (inactive). The GI50 with UACC-257 is > 100 µM (inactive).

For `O=C(NCCC1CN(S(=O)(=O)C(F)(F)F)c2ccccc21)OCc1ccccc1` (centres undefined), the GI50 is > 100 µM (inactive) in the experiment with 786-0; > 100 µM (inactive) in the experiment with CAKI-1; > 100 µM (inactive) in the experiment with EKVX; greater than 100 µM in the experiment on HCT-15; > 100 µM (inactive) in the experiment on HOP-62; 76.6 µM (inactive) in the experiment with Hs-578T. The GI50 with KM12 was 83.4 µM (inactive); with MDA-MB-231 it was > 100 µM (inactive); in the experiment with NCI-H460, > 100 µM (inactive); in the experiment on NCI-H522, 57 µM (inactive); with OVCAR-4, > 100 µM (inactive); with OVCAR-8, > 100 µM (inactive). The GI50 was > 100 µM (inactive) in the experiment on SF-268; > 100 µM (inactive) in the experiment on SNB-19; > 100 µM (inactive) with SR; 83.9 µM (inactive) in the experiment with U-251; > 100 µM (inactive) in the experiment with UACC-257.
